In the CheMixHub viscosity set:
± gives the uncertainty stated by the source.

Assay: xn = mol fraction of the nth substance listed

C=CC(C)(O)CCC=C(C)C (configuration not stated) + CCCCCC
298.15 K, 101.33 kPa
Settings	viscosity [mPa·s]
x2 = 0.0412	3.82 ± 0.042
x2 = 0.103	3.13 ± 0.035
x2 = 0.2546	1.952 ± 0.023
x2 = 0.3645	1.418 ± 0.017
x2 = 0.4938	0.995 ± 0.013
x2 = 0.5828	0.792 ± 0.01
x2 = 0.6605	0.637 ± 0.009
x2 = 0.7376	0.525 ± 0.007
x2 = 0.8069	0.445 ± 0.007
x2 = 0.8815	0.372 ± 0.006
x2 = 0.9366	0.33 ± 0.005
x2 = 0.9766	0.306 ± 0.005

CCCCCCCC + CCCCCC
viscosity [mPa·s]
Settings	x2 = 0.1072	x2 = 0.2073	x2 = 0.2375	x2 = 0.3034	x2 = 0.4038	x2 = 0.5101	x2 = 0.6111	x2 = 0.7056	x2 = 0.805	x2 = 0.9018
294.65 K, 100 kPa	–	–	0.432 ± 0.087	–	–	–	–	–	–	–
298.15 K, 101.33 kPa	0.4782 ± 0.0069	0.4598 ± 0.0067	–	0.4414 ± 0.0065	0.4124 ± 0.0062	0.392 ± 0.006	0.3697 ± 0.0057	0.351 ± 0.0055	0.3326 ± 0.0053	0.3172 ± 0.0052

CCCCCO + CCCCCC
viscosity [mPa·s], 101 kPa
Settings	298.15 K	313.15 K
x1 = 0.0122	0.302 ± 0.004	–
x1 = 0.0218	0.305 ± 0.004	–
x1 = 0.0272	0.307 ± 0.004	–
x1 = 0.0424	0.312 ± 0.004	–
x1 = 0.0642	0.321 ± 0.004	–
x1 = 0.0706	0.324 ± 0.004	–
x1 = 0.0889	0.333 ± 0.004	–
x1 = 0.0978	0.337 ± 0.004	–
x1 = 0.124	0.35 ± 0.004	–
x1 = 0.1377	0.357 ± 0.004	–
x1 = 0.1474	0.362 ± 0.004	–
x1 = 0.1677	0.371 ± 0.004	0.318 ± 0.004
x1 = 0.1838	0.382 ± 0.004	–
x1 = 0.1966	0.39 ± 0.004	–
x1 = 0.2033	0.395 ± 0.004	–
x1 = 0.2353	0.423 ± 0.005	0.356 ± 0.004
x1 = 0.3342	0.518 ± 0.005	0.427 ± 0.005
x1 = 0.4494	0.677 ± 0.007	0.545 ± 0.006
x1 = 0.5434	0.874 ± 0.009	0.668 ± 0.007
x1 = 0.6407	1.19 ± 0.011	0.893 ± 0.009
x1 = 0.7344	1.555 ± 0.015	1.134 ± 0.011
x1 = 0.8437	2.164 ± 0.02	1.5 ± 0.014
x1 = 0.9129	2.715 ± 0.025	1.843 ± 0.017

ClC(Cl)=C(Cl)Cl + CCCCCC
303.15 K, 101 kPa
Settings	viscosity [mPa·s]
x1 = 0.1642	0.358 ± 0.008
x1 = 0.2468	0.388 ± 0.008
x1 = 0.3358	0.432 ± 0.009
x1 = 0.4336	0.471 ± 0.009
x1 = 0.4782	0.494 ± 0.009
x1 = 0.514	0.515 ± 0.009
x1 = 0.6464	0.591 ± 0.009
x1 = 0.7236	0.643 ± 0.008
x1 = 0.8072	0.697 ± 0.008
x1 = 0.9346	0.776 ± 0.008

O=[N+]([O-])c1ccccc1 + CCCCCC
Settings	viscosity [mPa·s]
293.17 K, 101.32 kPa, x1 = 0.183	0.408 ± 0.039
293.27 K, 101.32 kPa, x1 = 0.453	0.761 ± 0.042
293.65 K, 101.32 kPa, x1 = 0.419	0.697 ± 0.041
293.66 K, 101.32 kPa, x1 = 0.732	1.09 ± 0.045
293.77 K, 101.32 kPa, x1 = 0.287	0.552 ± 0.04
293.77 K, 101.32 kPa, x1 = 0.36	0.552 ± 0.04
294.1 K, 101.32 kPa, x1 = 0.559	0.799 ± 0.042
294.57 K, 101.32 kPa, x1 = 0.183	0.4 ± 0.039
294.75 K, 101.32 kPa, x1 = 0.419	0.651 ± 0.041
294.75 K, 101.32 kPa, x1 = 0.629	0.881 ± 0.043
294.85 K, 101.32 kPa, x1 = 0.453	0.692 ± 0.041
295.17 K, 101.32 kPa, x1 = 0.287	0.54 ± 0.04
295.17 K, 101.32 kPa, x1 = 0.36	0.54 ± 0.04
295.88 K, 101.32 kPa, x1 = 0.732	1.05 ± 0.044
296.05 K, 101.32 kPa, x1 = 0.559	0.775 ± 0.042
296.3 K, 101.32 kPa, x1 = 0.183	0.395 ± 0.039
296.4 K, 101.32 kPa, x1 = 0.453	0.665 ± 0.041
296.45 K, 101.32 kPa, x1 = 0.629	0.861 ± 0.043
296.57 K, 101.32 kPa, x1 = 0.287	0.529 ± 0.04
296.57 K, 101.32 kPa, x1 = 0.36	0.529 ± 0.04
296.85 K, 101.32 kPa, x1 = 0.419	0.621 ± 0.041
297.45 K, 101.32 kPa, x1 = 0.732	1.03 ± 0.044
298.07 K, 101.32 kPa, x1 = 0.559	0.747 ± 0.042
298.15 K, 101.32 kPa, x1 = 0.36	0.516 ± 0.04
298.25 K, 101.32 kPa, x1 = 0.287	0.516 ± 0.04
298.25 K, 101.32 kPa, x1 = 0.629	0.836 ± 0.043
298.35 K, 101.32 kPa, x1 = 0.419	0.605 ± 0.04
298.55 K, 101.32 kPa, x1 = 0.453	0.645 ± 0.041
303.15 K, 101 kPa, x2 = 0.072	1.319 ± 0.035
303.15 K, 101 kPa, x2 = 0.148	1.016 ± 0.027
303.15 K, 101 kPa, x2 = 0.246	0.8236 ± 0.022
303.15 K, 101 kPa, x2 = 0.318	0.6679 ± 0.018
303.15 K, 101 kPa, x2 = 0.391	0.5916 ± 0.016
303.15 K, 101 kPa, x2 = 0.51	0.4845 ± 0.013
303.15 K, 101 kPa, x2 = 0.618	0.4107 ± 0.011
303.15 K, 101 kPa, x2 = 0.735	0.3659 ± 0.0098
303.15 K, 101 kPa, x2 = 0.862	0.3216 ± 0.0087

c1ccccc1 + CCCCCC
Settings	viscosity [mPa·s]
293.15 K, 101.33 kPa, x1 = 0.1713	0.327 ± 0.009
293.15 K, 101.33 kPa, x1 = 0.3148	0.345 ± 0.009
293.15 K, 101.33 kPa, x1 = 0.4632	0.371 ± 0.01
293.15 K, 101.33 kPa, x1 = 0.5799	0.406 ± 0.011
293.15 K, 101.33 kPa, x1 = 0.7266	0.454 ± 0.012
293.15 K, 101.33 kPa, x1 = 0.8082	0.494 ± 0.013
293.15 K, 101.33 kPa, x1 = 0.9173	0.57 ± 0.015
298 K, 101.33 kPa, x1 = 0.1026	0.3104 ± 0.0044
298 K, 101.33 kPa, x1 = 0.2013	0.3191 ± 0.0045
298 K, 101.33 kPa, x1 = 0.2817	0.3276 ± 0.0047
298 K, 101.33 kPa, x1 = 0.4385	0.3516 ± 0.0049
298 K, 101.33 kPa, x1 = 0.5967	0.3871 ± 0.0054
298 K, 101.33 kPa, x1 = 0.7149	0.4256 ± 0.0058
298 K, 101.33 kPa, x1 = 0.794	0.46 ± 0.0063
298 K, 101.33 kPa, x1 = 0.8993	0.5212 ± 0.007
298.1 K, 101 kPa, x2 = 0.2	0.469 ± 0.042
298.1 K, 101 kPa, x2 = 0.4	0.4 ± 0.039
298.1 K, 101 kPa, x2 = 0.5	0.377 ± 0.038
298.1 K, 101 kPa, x2 = 0.6	0.359 ± 0.037
298.1 K, 101 kPa, x2 = 0.8	0.334 ± 0.036
298.15 K, 101 kPa, x2 = 0.07	0.556 ± 0.024
298.15 K, 101 kPa, x2 = 0.182	0.5 ± 0.021
298.15 K, 101 kPa, x2 = 0.265	0.489 ± 0.02
298.15 K, 101 kPa, x2 = 0.405	0.429 ± 0.017
298.15 K, 101 kPa, x2 = 0.563	0.4 ± 0.016
298.15 K, 101.33 kPa, x1 = 0.0651	0.2983 ± 0.0034
298.15 K, 101.33 kPa, x1 = 0.1218	0.3034 ± 0.0035
298.15 K, 101.33 kPa, x1 = 0.1281	0.3134 ± 0.0082
298.15 K, 101.33 kPa, x1 = 0.2665	0.327 ± 0.0086
298.15 K, 101.33 kPa, x1 = 0.2763	0.3184 ± 0.0036
298.15 K, 101.33 kPa, x1 = 0.405	0.3471 ± 0.0091
298.15 K, 101.33 kPa, x1 = 0.4144	0.339 ± 0.0038
298.15 K, 101.33 kPa, x1 = 0.5704	0.3822 ± 0.01
298.15 K, 101.33 kPa, x1 = 0.5822	0.3759 ± 0.0041
298.15 K, 101.33 kPa, x1 = 0.7092	0.4165 ± 0.0044
298.15 K, 101.33 kPa, x1 = 0.7216	0.4254 ± 0.011
298.15 K, 101.33 kPa, x1 = 0.821	0.4673 ± 0.0049
298.15 K, 101.33 kPa, x1 = 0.8811	0.5139 ± 0.013
298.15 K, 101.33 kPa, x1 = 0.9055	0.5208 ± 0.0053
298.15 K, 101.33 kPa, x2 = 0.0488	0.55 ± 0.01
298.15 K, 101.33 kPa, x2 = 0.05393	0.5662 ± 0.0051
298.15 K, 101.33 kPa, x2 = 0.1122	0.5225 ± 0.0048
298.15 K, 101.33 kPa, x2 = 0.1676	0.466 ± 0.009
298.15 K, 101.33 kPa, x2 = 0.2079	0.472 ± 0.0045
298.15 K, 101.33 kPa, x2 = 0.2486	0.434 ± 0.008
298.15 K, 101.33 kPa, x2 = 0.3095	0.4294 ± 0.0041
298.15 K, 101.33 kPa, x2 = 0.3321	0.397 ± 0.008
298.15 K, 101.33 kPa, x2 = 0.3638	0.386 ± 0.008
298.15 K, 101.33 kPa, x2 = 0.4168	0.373 ± 0.007
298.15 K, 101.33 kPa, x2 = 0.4197	0.3921 ± 0.0039
298.15 K, 101.33 kPa, x2 = 0.4682	0.358 ± 0.007
298.15 K, 101.33 kPa, x2 = 0.5004	0.3712 ± 0.0037
298.15 K, 101.33 kPa, x2 = 0.5206	0.347 ± 0.007
298.15 K, 101.33 kPa, x2 = 0.5934	0.3533 ± 0.0036
298.15 K, 101.33 kPa, x2 = 0.626	0.328 ± 0.007
298.15 K, 101.33 kPa, x2 = 0.6857	0.3394 ± 0.0035
298.15 K, 101.33 kPa, x2 = 0.7434	0.312 ± 0.007
298.15 K, 101.33 kPa, x2 = 0.7913	0.3268 ± 0.0034
298.15 K, 101.33 kPa, x2 = 0.8753	0.299 ± 0.006
298.15 K, 101.33 kPa, x2 = 0.8834	0.3202 ± 0.0033
298.15 K, 101.33 kPa, x2 = 0.9498	0.294 ± 0.006
308.15 K, 101 kPa, x2 = 0.07	0.486 ± 0.013
308.15 K, 101 kPa, x2 = 0.182	0.441 ± 0.012
308.15 K, 101 kPa, x2 = 0.265	0.415 ± 0.012
308.15 K, 101 kPa, x2 = 0.405	0.384 ± 0.011
308.15 K, 101 kPa, x2 = 0.563	0.361 ± 0.01
323.15 K, 101 kPa, x2 = 0.07	0.407 ± 0.011
323.15 K, 101 kPa, x2 = 0.182	0.374 ± 0.01
323.15 K, 101 kPa, x2 = 0.265	0.356 ± 0.01
323.15 K, 101 kPa, x2 = 0.405	0.334 ± 0.009
323.15 K, 101 kPa, x2 = 0.563	0.32 ± 0.009
